Experimental data reported in patent publication US8722849B2, “Polypeptides” (Novo Nordisk A/S, priority 2011, dated 2014).
In brackets after ≈: the same amount, converted by molar mass. Read-outs that look alike come from different tables or passages of the source. Starred links: 1 amine or outer side, 2 acyl side, 3 side chain; linkers in the order of their positions; H or OH if unused. Positions of bridges follow the written chain, without caps; N, C: chain ends. Residues, ends and D or L forms follow the SMILES beside them. *: point of attachment. C20 diacid = O=C(O)CCCCCCCCCCCCCCCCCCC(=O)*; γGlu = O=C(O)[C@H](CCC(=O)[*:2])N[*:1]

Columns and labels:
[1] = biological target: T1, human amylin receptor (amylin 3(a) receptor: human calcitonin receptor + RAMP-3) (Homo sapiens, UniProt O60896+P30988); test: Assay (II)a functional CRE-luciferase assay, human amylin receptor; assay type: cell-based; conditions: Table 2; BHK amylin 3(a)-receptor/CRE-luc cells
T1 construct: expressed in transfected cells; host or cells: BHK570
T1 sequence (P30988 25-474): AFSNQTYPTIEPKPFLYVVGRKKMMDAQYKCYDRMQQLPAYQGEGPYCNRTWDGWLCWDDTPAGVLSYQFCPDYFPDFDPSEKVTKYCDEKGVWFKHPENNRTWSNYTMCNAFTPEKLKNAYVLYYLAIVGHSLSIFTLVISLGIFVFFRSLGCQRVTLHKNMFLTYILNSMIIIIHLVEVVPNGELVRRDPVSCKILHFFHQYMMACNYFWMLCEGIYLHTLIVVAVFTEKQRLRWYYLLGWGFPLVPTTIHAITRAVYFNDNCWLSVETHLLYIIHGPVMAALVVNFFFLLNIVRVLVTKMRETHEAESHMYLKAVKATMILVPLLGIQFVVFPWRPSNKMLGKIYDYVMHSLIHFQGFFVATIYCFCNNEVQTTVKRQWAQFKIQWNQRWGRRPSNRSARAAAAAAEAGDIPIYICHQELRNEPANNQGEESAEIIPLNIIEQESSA
T1 sequence (O60896 24-148 partner): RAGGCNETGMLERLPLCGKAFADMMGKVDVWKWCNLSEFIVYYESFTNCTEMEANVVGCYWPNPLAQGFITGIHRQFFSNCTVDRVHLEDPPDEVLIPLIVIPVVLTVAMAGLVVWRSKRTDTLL

[2] = Assay (III) ThT fibrillation assay for physical stability; assay type: physicochemical; conditions: ThT fibrillation assay
How it was run: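 Freshly prepared formulations, pH-adjusted, with 1 μM ThT; four or eight replicates incubated at 37 °C under 960 rpm orbital shaking. Fluorescence (ex 444/em 485 nm) read every 20 min; […]. Peptide concentration measured by RP-HPLC before and after the run.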

[3] = biological target: T2, human calcitonin receptor (Homo sapiens, UniProt P30988); test: Assay (II)a functional CRE-luciferase assay, human calcitonin receptor; assay type: cell-based; conditions: Table 7; human calcitonin (CTa) receptor
T2 construct: expressed in transfected cells; host or cells: BHK570
T2 sequence (P30988 25-474): T1 sequence (P30988 25-474)

[4] = Assay (IV) determination of solubility; assay type: physicochemical
How it was run: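 Solubility was profiled across pH 3.0–8.0 after 18 hours at room temperature: a ~500 nmol/ml aqueous polypeptide solution was diluted 1:1 into 100 mM glycylglycine or bistrispropane buffers. After centrifugation, HPLC gave the dissolved concentration.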

[5] = bistrispropane buffer, pH 6, pH 6.0, read-out: Solubility pH 6.0
[6] = bistrispropane buffer, pH 6.5, pH 6.5, read-out: Solubility pH 6.5
[7] = bistrispropane buffer, pH 7, pH 7.0, read-out: Solubility pH 7.0
[8] = bistrispropane buffer, pH 7.5, pH 7.5, read-out: Solubility pH 7.5
[9] = glycylglycine buffer, pH 3, pH 3.0, read-out: Solubility pH 3.0
[10] = glycylglycine buffer, pH 4, pH 4.0, 18 hours at room temperature, Table 2, read-out: Solubility pH 4.0
[11] = glycylglycine buffer, pH 4, pH 4.0, read-out: Solubility pH 4.0
[12] = glycylglycine buffer, pH 5, pH 5.0, read-out: Solubility pH 5.0

Row | SMILES | EC50 [1] | ThT pH 4.0 lag time (h) [2] | EC50 [3] | solubility at 18 h [4, 5] | solubility at 18 h [4, 6] | solubility at 18 h ([4]; bistrispropane buffer, pH 7, pH 7.0, 18 hours at room temperature, Table 3, read-out: Solubility pH 7.0) | solubility at 18 h [4, 7] | solubility at 18 h [4, 8] | solubility at 18 h ([4]; bistrispropane buffer, pH 8, pH 8.0, read-out: Solubility pH 8.0) | solubility at 18 h [4, 9] | solubility at 18 h [4, 10] | solubility at 18 h [4, 11] | solubility at 18 h [4, 12] | solubility at 18 h ([4]; pH 8.0, read-out: Solubility pH 8.0)
1 | CC[C@H](C)[C@H](NC(=O)[C@@H]1CCCN1C(=O)CNC(=O)[C@H](Cc1ccccc1)NC(=O)[C@H](CC(N)=O)NC(=O)[C@H](CC(N)=O)NC(=O)[C@H](CO)NC(=O)[C@H](CO)NC(=O)[C@H](Cc1c[nH]cn1)NC(=O)[C@@H](NC(=O)[C@H](CC(C)C)NC(=O)[C@H](Cc1ccccc1)NC(=O)[C@H](CCC(=O)O)NC(=O)[C@H](C)NC(=O)[C@H](CC(C)C)NC(=O)[C@H](CCCNC(=N)N)NC(=O)[C@H](CCC(N)=O)NC(=O)[C@@H](NC(=O)[C@H](C)NC(=O)[C@@H]1CSSC[C@H](NC(=O)[C@H](Cc2c[nH]cn2)NC(=O)CC[C@H](NC(=O)CCCCCCCCCCCCCCCCCCC(=O)O)C(=O)O)C(=O)N[C@@H](CC(N)=O)C(=O)N[C@@H]([C@@H](C)O)C(=O)N[C@@H](C)C(=O)N[C@@H]([C@@H](C)O)C(=O)N1)[C@@H](C)O)C(C)C)C(=O)N[C@@H](CC(C)C)C(=O)N1CCC[C@H]1C(=O)N1CCC[C@H]1C(=O)N[C@H](C(=O)N[C@@H](CC(N)=O)C(=O)N[C@H](C(=O)NCC(=O)N[C@@H](CO)C(=O)N[C@@H](CC(N)=O)C(=O)N[C@H](C(=O)N1CCC[C@H]1C(N)=O)[C@@H](C)O)C(C)C)[C@@H](C)O [Example 109, N-alpha-[(S)-4-Carboxy-4-(19-carboxynonadecanoylamino)butyryl]-[His1,Glu14,Pro37]-pramlintide] ({C20 diacid-γGlu}-HCNTATCATQRLAEFLVHSSNNFGPILPPTNVGSNTP-NH2; disulfide 2-7 (inferred); C-terminus assumed) | 0.0845 nM | 6.3 h | 0.0725 nM | > 200 µM | > 200 µM | > 200 µM | > 200 µM | > 200 µM | > 200 µM | > 200 µM | > 200 µM | > 200 µM | > 200 µM | –
2 | CC[C@H](C)[C@H](NC(=O)[C@@H]1CCCN1C(=O)CNC(=O)[C@H](Cc1ccccc1)NC(=O)[C@H](CC(N)=O)NC(=O)[C@H](CO)NC(=O)[C@H](CO)NC(=O)[C@H](CO)NC(=O)[C@H](Cc1c[nH]cn1)NC(=O)[C@@H](NC(=O)[C@H](CC(C)C)NC(=O)[C@H](Cc1ccccc1)NC(=O)[C@H](CCC(=O)O)NC(=O)[C@H](C)NC(=O)[C@H](CC(C)C)NC(=O)[C@H](CCCNC(=N)N)NC(=O)[C@H](CCC(N)=O)NC(=O)[C@@H](NC(=O)[C@H](C)NC(=O)[C@@H]1CSSC[C@H](NC(=O)[C@H](Cc2c[nH]cn2)NC(=O)CC[C@H](NC(=O)CCCCCCCCCCCCCCCCCCC(=O)O)C(=O)O)C(=O)N[C@@H](CC(N)=O)C(=O)N[C@@H]([C@@H](C)O)C(=O)N[C@@H](C)C(=O)N[C@@H]([C@@H](C)O)C(=O)N1)[C@@H](C)O)C(C)C)C(=O)N[C@@H](CC(C)C)C(=O)N[C@@H](CO)C(=O)N[C@@H](CO)C(=O)N[C@H](C(=O)N[C@@H](CC(N)=O)C(=O)N[C@H](C(=O)NCC(=O)N[C@@H](CO)C(=O)N[C@@H](Cc1c[nH]cn1)C(=O)N[C@H](C(=O)N[C@@H](Cc1ccc(O)cc1)C(N)=O)[C@@H](C)O)C(C)C)[C@@H](C)O [Example 110, N-alpha-[(S)-4-Carboxy-4-(19-carboxynonadecanoylamino)butyryl]-[His1,Glu14,Ser21,Ser28,Ser29,His35]-pramlintide] ({C20 diacid-γGlu}-HCNTATCATQRLAEFLVHSSSNFGPILSSTNVGSHTY-NH2; disulfide 2-7 (inferred)) | 0.921 nM | 1.7 h | 0.349 nM | 1 µM (≈ 4.4 µg/mL) | 1 µM (≈ 4.4 µg/mL) | – | 1 µM (≈ 4.4 µg/mL) | 1 µM (≈ 4.4 µg/mL) | – | > 200 µM | > 200 µM | > 200 µM | > 200 µM | 1 µM (≈ 4.4 µg/mL)
